US8252939B2, “Sulfoximinamide compounds for combating animal pests” (BASF SE, priority 2008, dated 2012)

Legend:
Format in all cases: in vivo
aphis craccivora = assay: Cowpea aphid (aphis craccivora), sprayed potted cowpea plants; conditions: population reduction assessed after 24, 72, and 120 hours, read-out: mortality in comparison with untreated controls
Procedure: The active compound is dissolved at the desired concentration in a mixture of 1:1 (vol:vol) distilled water:acetone. The test solution is prepared at the day of use.
Potted cowpea plants colonized with approximately 100-150 aphids of various stages were sprayed after the pest population has been recorded. Population reduction was assessed after 24, 72, and 120 hours.

dichromothrips corbetti = assay: Orchid thrips (dichromothrips corbetti) floral-immersion; conditions: 96 h, after 4 days, read-out: mortality in comparison with untreated controls
Procedure: Dichromothrips corbetti adults used for bioassay were obtained from a colony maintained continuously under laboratory conditions. For testing purposes, the test compound was diluted to a concentration of 300 ppm (wt compound: vol diluent) in a 1:1 mixture of acetone:water (vol:vol), plus 0.01% vol/vol Kinetic® surfactant.
Thrips potency of each compound was evaluated by using a floral-immersion technique. Plastic petri dishes were used as test arenas. All petals of individual, intact orchid flowers were dipped into treatment solution and allowed to dry. Treated flowers were placed into individual petri dishes along with 10-15 adult thrips. The petri dishes were then covered with lids. All test arenas were held under continuous light and a temperature of about 28° C. for duration of the assay. After 4 days, the numbers of live thrips were counted on each flower, and along inner walls of each petri dish. The level of thrips mortality was extrapolated from pre-treatment thrips numbers.

Nephotettix virescens = assay: Rice green leafhopper (Nephotettix virescens), sprayed rice seedlings; conditions: after 72 hours, read-out: mortality in comparison with untreated controls
Procedure: Rice seedlings were cleaned and washed 24 hours before spraying. The active compounds were formulated in 50:50 acetone:water (vol:vol), and 0.1% vol/vol surfactant (EL 620) was added. Potted rice seedlings were sprayed with 5 ml test solution, air dried, placed in cages and inoculated with 10 adults. Treated rice plants were kept at about 28-29° C. and relative humidity of about 50-60%. Percent mortality was recorded after 72 hours.

Aphis gossypii = assay: Cotton aphid (Aphis gossypii) I, cotton cotyledon dip; conditions: 120 h, after 5 days, read-out: mortality in comparison with untreated controls
Source text: The active compounds were formulated in 50:50 (vol:vol) acetone:water and 100 ppm Kinetica™ surfactant.
Cotton plants at the cotyledon stage (one plant per pot) were infested by placing a heavily infested leaf from the main colony on top of each cotyledon. The aphids were allowed to transfer to the host plant overnight, and the leaf used to transfer the aphids was removed. The cotyledons were dipped in the test solution and allowed to dry. After 5 days, mortality counts were made.

Anthonomus grandis = assay: Boll weevil (Anthonomus grandis) egg and larval mortality, microtiter plate insect diet; conditions: 120 h, egg and larval mortality after 5 days, read-out: mortality in comparison with untreated controls
Procedure: For evaluating control of boll weevil (Anthonomus grandis) the test unit consisted of 24-well-microtiter plates containing an insect diet and 20-30 A. grandis eggs.
The compounds were formulated using a solution containing 75% v/v water and 25% v/v DMSO. Different concentrations of formulated compounds were sprayed onto the insect diet at 20 μl, using a custom built micro atomizer, at two replications. After application, microtiter plates were incubated at about 23±1° C. and about 50±5% relative humidity for 5 days. Egg and larval mortality was then visually assessed.

Megoura viciae = assay: Vetch aphid (Megoura viciae) contact or systemic, broad bean leaf disks; conditions: foliar, 120 h, after 5 days, read-out: mortality in comparison with untreated controls
Procedure: For evaluating control of vetch aphid (Megoura viciae) through contact or systemic means the test unit consisted of 24-well-microtiter plates containing broad bean leaf disks.
The compounds were formulated using a solution containing 75% v/v water and 25% v/v DMSO. Different concentrations of formulated compounds were sprayed onto the leaf disks at 2.5 μl, using a custom built micro atomizer, at two replications. After application, the leaf disks were air-dried and 5-8 adult aphids placed on the leaf disks inside the microtiter plate wells. The aphids were then allowed to suck on the treated leaf disks and incubated at about 23±1° C. and about 50±5% relative humidity for 5 days. Aphid mortality and fecundity was then visually assessed.

Myzus persicae [1] = assay: Green peach aphid (Myzus persicae) II, pepper plant leaf dip; conditions: foliar, 120 h, after 5 days, read-out: mortality in comparison with untreated controls
Source text: The active compounds were formulated in 50:50 acetone:water (vol:vol) and 100 ppm Kinetica™ surfactant.
Pepper plants in the 2nd leaf-pair stage (variety ‘California Wonder’) were infested with approximately 40 laboratory-reared aphids by placing infested leaf sections on top of the test plants. The leaf sections were removed after 24 hr. The leaves of the intact plants were dipped into gradient solutions of the test compound and allowed to dry. Test plants were maintained under fluorescent light (24 hour photoperiod) at about 25° C. and about 20-40% relative humidity. Aphid mortality on the treated plants, relative to mortality on check plants, was determined after 5 days.

Myzus persicae [2] = assay: Green peach aphid (Myzus persicae) I, systemic, artificial diet under membrane; conditions: 72 h, after 3 days, read-out: mortality in comparison with untreated controls
Source text: For evaluating control of green peach aphid (Myzus persicae) through systemic means the test unit consisted of 96-well-microtiter plates containing liquid artificial diet under an artificial membrane.
The compounds were formulated using a solution containing 75% v/v water and 25% v/v DMSO. Different concentrations of formulated compounds were pipetted into the aphid diet, using a custom built pipetter, at two replications.
After application, 5-8 adult aphids were placed on the artificial membrane inside the microtiter plate wells. The aphids were then allowed to suck on the treated aphid diet and incubated at about 23±1° C. and about 50±5% relative humidity for 3 days. Aphid mortality and fecundity was then visually assessed.

N#CN=S1(=O)CCCN1Cc1ccc(Cl)nc1 (centres unmarked) [compound 1]
> 75%: mortality at 300 ppm (aphis craccivora) | mortality at 300 ppm (dichromothrips corbetti) | mortality at 300 ppm (Nephotettix virescens) | mortality at 300 ppm (Aphis gossypii) | mortality at 2500 ppm (Anthonomus grandis) | mortality at 2500 ppm (Megoura viciae) | mortality at 300 ppm (Myzus persicae [1]) | mortality at 300 ppm (Myzus persicae [2])

N#CN=S1(=O)CCCN1c1cnc(Cl)c(Cl)c1 (centres unmarked) [compound 12]
> 75%: mortality at 300 ppm (aphis craccivora) | mortality at 300 ppm (Nephotettix virescens) | mortality at 300 ppm (Aphis gossypii) | mortality at 2500 ppm (Megoura viciae) | mortality at 300 ppm (Myzus persicae [1])

CS(=O)(=NC#N)NCc1ccc(Cl)nc1 (centres unmarked) [compound 90]
> 75%: mortality at 300 ppm (aphis craccivora) | mortality at 300 ppm (Aphis gossypii) | mortality at 2500 ppm (Megoura viciae) | mortality at 300 ppm (Myzus persicae [1])
